From PubChem BioAssay AID1259411 (Chemical Carcinogenesis Research Information System (CCRIS), 2018)
Activity calls are given as the source filed them. How the calls were made is not given here.

System: rodent carcinogenicity bioassays, tumor incidence
Test: CCRIS carcinogenicity studies
Summary of the method: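 Archive of carcinogenicity, mutagenicity, tumor promotion and tumor inhibition results drawn from journals, NCI reports and other sources, expert-reviewed; covers 1985-2011 and is no longer updated.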

ClC(Cl)Br
carcinogen call (Species: FISH, Strain/Sex: ORYZIAS LATIPES/FEMALE, Route: IMMERSION, Dose: 0, 0.018, 0.143, 1.424 MG/L AQUEOUS SOLUTION FOR 6 MO (STUDY DURATION: 6 MO), Dose: 0, 0.018, 0.143, 1.424 MG/L AQUEOUS SOLUTION FOR 6 MO (STUDY DURATION: 6 MO)): inactive; negative | carcinogen call (Species: FISH, Strain/Sex: ORYZIAS LATIPES/FEMALE, Route: IMMERSION, Dose: 0, 0.018, 0.143, 1.424 MG/L AQUEOUS SOLUTION FOR 9 MO (STUDY DURATION: 9 MO), Dose: 0, 0.018, 0.143, 1.424 MG/L AQUEOUS SOLUTION FOR 9 MO (STUDY DURATION: 9 MO)): inactive; negative | carcinogen call (Species: FISH, Strain/Sex: ORYZIAS LATIPES/MALE, Route: IMMERSION, Dose: 0, 0.018, 0.143, 1.424 MG/L AQUEOUS SOLUTION FOR 6 MO (STUDY DURATION: 6 MO), Dose: 0, 0.018, 0.143, 1.424 MG/L AQUEOUS SOLUTION FOR 6 MO (STUDY DURATION: 6 MO)): inactive; negative | carcinogen call (Species: FISH, Strain/Sex: ORYZIAS LATIPES/MALE, Route: IMMERSION, Dose: 0, 0.018, 0.143, 1.424 MG/L AQUEOUS SOLUTION FOR 9 MO (STUDY DURATION: 9 MO), Dose: 0, 0.018, 0.143, 1.424 MG/L AQUEOUS SOLUTION FOR 9 MO (STUDY DURATION: 9 MO)): inactive; negative | carcinogen call (Species: MOUSE, Strain/Sex: B6C3F1/FEMALE, Route: GAVAGE, Dose: 0, 75, 150 MG/KG IN CORN OIL 5D/WK FOR 102 WK (STUDY DURATION: 105 WK), Dose: 0, 75, 150 MG/KG IN CORN OIL 5D/WK FOR 102 WK (STUDY DURATION: 105 WK), Tumor Site: Type of Lesion: LIVER: HEPATOCELLULAR ADENOMA, LIVER: HEPATOCELLULAR CARCINOMA, LIVER: HEPATOCELLULAR ADENOMA OR CARCINOMA, Tumor Site: Type of Lesion: LIVER: HEPATOCELLULAR ADENOMA, LIVER: HEPATOCELLULAR CARCINOMA, LIVER: HEPATOCELLULAR ADENOMA OR CARCINOMA): active; positive | carcinogen call (Species: MOUSE, Strain/Sex: B6C3F1/MALE, Route: GAVAGE, Dose: 0, 25, 50 MG/KG IN CORN OIL 5D/WK FOR 102 WK (STUDY DURATION: 105 WK), Dose: 0, 25, 50 MG/KG IN CORN OIL 5D/WK FOR 102 WK (STUDY DURATION: 105 WK), Tumor Site: Type of Lesion: KIDNEY: TUBULAR CELL ADENOMA OR ADENOCARCINOMA): active; positive | carcinogen call (Species: MOUSE, Strain/Sex: B6C3F1/MALE, Route: ORAL, Dose: 0, 8.1, 27.2, 43.4 MG/KG/D IN 0.25% EMULPHOR IN DRINKING WATER FOR 100 WK (STUDY DURATION: 100 WK), Dose: 0, 8.1, 27.2, 43.4 MG/KG/D IN 0.25% EMULPHOR IN DRINKING WATER FOR 100 WK (STUDY DURATION: 100 WK)): inactive; negative | carcinogen call (Species: Mouse, Strain/Sex: B6C3F1/female, Route: Oral, Dose: 0, 175, 350, 700 mg/L (about 0, 9, 18, and 36 mg/kg, respectively) in drinking water for 104 wk, Dose: 0, 175, 350, 700 mg/L (about 0, 9, 18, and 36 mg/kg, respectively) in drinking water for 104 wk): inactive; negative | carcinogen call (Species: RAT, Strain/Sex: F344/FEMALE, Route: GAVAGE, Dose: 0, 50, 100 MG/KG IN CORN OIL 5D/WK FOR 102 WK (STUDY DURATION: 104 WK), Dose: 0, 50, 100 MG/KG IN CORN OIL 5D/WK FOR 102 WK (STUDY DURATION: 104 WK), Tumor Site: Type of Lesion: LARGE INTESTINE: ADENOMATOUS POLYP, LARGE INTESTINE: ADENOCARCINOMA, LARGE INTESTINE: ADENOMATOUS POLYP OR ADENOCARCINOM, Tumor Site: Type of Lesion: LARGE INTESTINE: ADENOMATOUS POLYP, LARGE INTESTINE: ADENOCARCINOMA, LARGE INTESTINE: ADENOMATOUS POLYP OR ADENOCARCINOM): active; positive | carcinogen call (Species: RAT, Strain/Sex: F344/MALE, Route: GAVAGE, Dose: 0, 50, 100 MG/KG IN CORN OIL 5D/WK FOR 102 WK (STUDY DURATION: 104 WK), Dose: 0, 50, 100 MG/KG IN CORN OIL 5D/WK FOR 102 WK (STUDY DURATION: 104 WK), Tumor Site: Type of Lesion: LARGE INTESTINE: ADENOCARCINOMA, LARGE INTESTINE: ADENOMATOUS POLYP, LARGE INTESTINE: ADENOMATOUS POLYP OR ADENOCARCINOM, Tumor Site: Type of Lesion: LARGE INTESTINE: ADENOCARCINOMA, LARGE INTESTINE: ADENOMATOUS POLYP, LARGE INTESTINE: ADENOMATOUS POLYP OR ADENOCARCINOM): active; positive | carcinogen call (Species: RAT, Strain/Sex: F344/MALE, Route: ORAL, Dose: 0, 3.9, 20.6, 36.3 MG/KG/D IN 0.25% EMULPHOR IN DRINKING WATER FOR 100 WK (STUDY DURATION: 100 WK), Dose: 0, 3.9, 20.6, 36.3 MG/KG/D IN 0.25% EMULPHOR IN DRINKING WATER FOR 100 WK (STUDY DURATION: 100 WK), Tumor Site: Type of Lesion: LIVER: HEPATOCELLULAR ADENOMA, HEPATOCELLULAR ADENOMA OR HEPATOCELLULAR CARCINOMA): active; positive | carcinogen call (Species: RAT, Strain/Sex: WISTAR/FEMALE, Route: ORAL, Dose: 0, 1.2 ML/L (15 MILLIMOLAR) IN DRINKING WATER FOR 72 WK THEN DOSE HALVED FOR DURATION OF STUDY (STUDY DURATION: LIFETIME, Tumor Site: Type of Lesion: LIVER: NEOPLASTIC NODULES, LYMPHOID TISSUE: LYMPHOSARCOMA): active; positive | carcinogen call (Species: RAT, Strain/Sex: WISTAR/MALE, Route: ORAL, Dose: 0, 1.2 ML/L (15 MILLIMOLAR) IN DRINKING WATER FOR 72 WK THEN DOSE HALVED FOR DURATION OF STUDY (STUDY DURATION: LIFETIME): inactive; negative | carcinogen call (Species: Rat, Strain/Sex: F344/N/male, Route: Oral, Dose: 0, 175, 350, 700 mg/L (about 0, 6, 12, and 25 mg/kg, respectively) in drinking water for 104 wk, Dose: 0, 175, 350, 700 mg/L (about 0, 6, 12, and 25 mg/kg, respectively) in drinking water for 104 wk): inactive; negative

C[N+]1(C)CCCCC1
carcinogen call (Species: Rat, Strain/Sex: Wistar/Female (50/Group), Route: Oral, Dose: 0, 17, 141, 370 mg/kg/day of 57.9% mepiquat chloride in diet for 24 mo, study duration 24 mo, Dose: 0, 17, 141, 370 mg/kg/day of 57.9% mepiquat chloride in diet for 24 mo, study duration 24 mo): inactive; negative | carcinogen call (Species: Rat, Strain/Sex: Wistar/Male (50/Group), Route: Oral, Dose: 0, 13, 105, 269 mg/kg/day of 57.9% mepiquat chloride in diet for 24 mo, study duration 24 mo, Dose: 0, 13, 105, 269 mg/kg/day of 57.9% mepiquat chloride in diet for 24 mo, study duration 24 mo): inactive; negative

COc1ccc(CN(CCN(C)C)c2ccccn2)cc1
carcinogen call (Species: MOUSE, Strain/Sex: B6C3F1/FEMALE, Route: ORAL, Dose: 0, 150, 750, 1500 PPM IN DIET FOR 103 WK (STUDY DURATION: 103 WK), Dose: 0, 150, 750, 1500 PPM IN DIET FOR 103 WK (STUDY DURATION: 103 WK)): inactive; negative | carcinogen call (Species: MOUSE, Strain/Sex: B6C3F1/MALE, Route: ORAL, Dose: 0, 150, 750, 1500 PPM IN DIET FOR 103 WK (STUDY DURATION: 104 WK), Dose: 0, 150, 750, 1500 PPM IN DIET FOR 103 WK (STUDY DURATION: 104 WK)): inactive; negative | carcinogen call (Species: RAT, Strain/Sex: F344/FEMALE, Route: ORAL, Dose: 0, 300, 1500, 3000 PPM IN DIET FOR 2 YR (STUDY DURATION: 2 YR), Dose: 0, 300, 1500, 3000 PPM IN DIET FOR 2 YR (STUDY DURATION: 2 YR)): inactive; negative | carcinogen call (Species: RAT, Strain/Sex: F344/FEMALE, Route: ORAL, Dose: 0, 2000 PPM IN DIET (TOTAL DOSE: 120 G/KG) FOR 110 WK (STUDY DURATION: 133 WK)): inactive; negative | carcinogen call (Species: RAT, Strain/Sex: F344/FEMALE, Route: ORAL, Dose: 0, 2000 PPM IN DRINKING WATER (0.2%) 5 D/WK FOR 110 WK (TOTAL DOSE: 88 G/KG) (STUDY DURATION: 133 WK)): inactive; negative | carcinogen call (Species: RAT, Strain/Sex: F344/MALE, Route: ORAL, Dose: 0, 300, 1500, 3000 PPM IN DIET FOR 2 YR (STUDY DURATION: 2 YR), Dose: 0, 300, 1500, 3000 PPM IN DIET FOR 2 YR (STUDY DURATION: 2 YR)): inactive; negative | carcinogen call (Species: RAT, Strain/Sex: F344/MALE, Route: ORAL, Dose: 0, 2000 PPM (0.2%) IN DRINKING WATER 5 D/WK FOR 110 WK (TOTAL DOSE: 55 G/KG) (STUDY DURATION: 133 WK)): inactive; negative | carcinogen call (Species: RAT, Strain/Sex: F344/MALE, Route: ORAL, Dose: O, 2000 PPM IN DIET (TOTAL DOSE: 110 G/KG) FOR 110 WK (STUDY DURATION: 133 WK)): inactive; negative | carcinogen call (Species: RAT, Strain/Sex: SPRAGUE-DAWLEY/FEMALE, Route: ORAL, Dose: 0, 500, 1000 PPM IN DRINKING WATER 5D/WK FOR LIFE (STUDY DURATION: 549-745 D), Dose: 0, 500, 1000 PPM IN DRINKING WATER 5D/WK FOR LIFE (STUDY DURATION: 549-745 D)): inactive; negative | carcinogen call (Species: RAT, Strain/Sex: SPRAGUE-DAWLEY/MALE, Route: ORAL, Dose: 0, 500, 1000 PPM IN DRINKING WATER 5D/WK FOR LIFE (STUDY DURATION: 496-611 D), Dose: 0, 500, 1000 PPM IN DRINKING WATER 5D/WK FOR LIFE (STUDY DURATION: 496-611 D)): inactive; negative
